# “Also recorded” adds a separate entry of the source.
# Tests used:
# [1] = system: high-fat diet C56BL/6 male mice; experiment: Body weight change and food intake of high-fat diet mice; type: in vivo, mouse; conditions: for Weight increase / Final weight: peritoneal injection every day; for Comparison of body weight increase, SL vs. ND: compared to normal diet mice
# Protocol: 4 week-old C56BL/6 male mice were purchased from Dooyeul Biotech (Korea). Water was allowed freely and commercially available pellet feed (Dooyeul Biotech, Korea) was given for a week. The mice were grouped into six groups (six per each group) as follows: ND, normal diet group (normal group); HD, high-fat (60% fat) diet [purchased from Research Diets (New Brunswick, USA)] group (control group); and HD+SL (0.1 mg/kg), HD+SL (0.5 mg/kg), HD+SL (1.0 mg/kg) and HD+SL (5.0 mg/kg), high-fat diet groups treated with sialyllactose (SL, Sigma). Sialyllactose or PBS was administered every day by peritoneal injection. The mice were kept in cages for 50 days and sacrificed after fasting for 12 hours. Food intake and body weight change were measured every 7 days. 3′-Sialyllactose (3′-N-acetylneuraminyl-D-lactose, 3′-sialyl-D-lactose or α-NeuNAc-(2→3)-β-D-Gal-(1→4)-D-Glc) and 6′-sialyllactose (6′-N-acetylneuraminyl-lactose, 6′-sialyl-D-lactose or α-NeuNAc-(2→6)-β-D-Gal-(1→4)-D-Glc) were purchased from Sigma-Aldrich.
# [2] = system: high-fat diet C56BL/6 male mice; experiment: Serum lipid and leptin levels in high-fat diet mice; type: in vivo, mouse; conditions: for Leptin / HDL-cholesterol / HDL/TC / LDL/TC / Total cholesterol (TC) / Triglyceride / LDL-cholesterol: peritoneal injection every day, 50 days; for Leptin: ELISA; for HDL-cholesterol / HDL/TC / LDL/TC / Total cholesterol (TC) / Triglyceride / LDL-cholesterol: serum; for LDL-cholesterol: calculated by Equation 1
# Protocol: (§1) Blood was taken from the liver of the C56BL/6 male mice. The blood was coagulated, centrifuged for 15 minutes at 13,000 rpm, and kept at −20° C. until serum analysis. High-density lipoprotein (HDL)-cholesterol level was measured using an HDL kit (YD Diagnostics, Korea). Triglyceride (TG) was analyzed using a TG kit (YD Diagnostics) based on enzymologic method. Total cholesterol was analyzed using a cholesterol E kit (YD Diagnostics). Low-density lipoprotein (LDL)-cholesterol level was calculated from triglyceride level, total cholesterol level and HDL-cholesterol level according to Equation 1: LDL-cholesterol=total cholesterol−{[…]} Equation 1
# Leptin level was measured using a mouse leptin ELISA kit (Millipore) and a rat leptin ELISA kit (Millipore).
# high-fat diet SD rats [3] = experiment: Body weight change, food and water intake of high-fat diet rats; type: in vivo, rat; conditions: orally administered every day, 7 weeks
# Protocol: 4 week-old Sprague-Dawley (SD) rats were purchased from Dooyeul Biotech (Korea). Water was allowed freely and commercially available pellet feed (Dooyeul Biotech, Korea) was given for a week. The rats were grouped into four groups (six per each group) as follows: ND, normal diet group (normal group); HD, high-fat (60% fat) diet [purchased from Research Diets (New Brunswick, USA)] group (control group); and HD+SL (1 mg/kg) and HD+SL (5 mg/kg), high-fat diet groups treated with SL (Sigma). 3′-SL or deionized water (DW) was orally administered every day. The mice were kept in cages for 7 weeks and sacrificed after fasting for 12 hours. Food intake and body weight change were measured every 5 days.
# high-fat diet SD rats [4] = experiment: Subcutaneous, perirenal and retroperitoneal fat weight in high-fat diet rats; type: in vivo, rat; conditions: orally administered for 6 weeks, FIG. 7
# Protocol: As described above, 4 week-old SD rats were treated with high-fat diet and 3′-SL for 6 weeks. Then, subcutaneous fat, perirenal fat and retroperitoneal fat were isolated from the rats and weighed.
# high-fat diet SD rats [5] = experiment: Serum lipid levels in high-fat diet rats; type: in vivo, rat; conditions: HD + SL 1 mg/kg
# Protocol: as §1
# Blood was taken from the liver of the SD rats, and lipid levels were analyzed in the same manner as the experiment with the C57BL/6 male mice.
# high-fat diet SD rats [6] = experiment: Improvement of fatty liver in high-fat diet rats (dissection, observation); type: in vivo, rat; conditions: orally administered, FIGS. 8a and 8b
# Excerpt: In order to investigate 3′-SL's effect of improving fatty liver, high-fat diet SD rats were dissected and the liver and other organs were observed.
# [7] = system: high-fat diet C56BL/6 male mice; experiment: Improvement of fatty liver in high-fat diet mice (dissection, observation); type: in vivo, mouse; conditions: peritoneally administered, FIG. 4
# Excerpt: In order to investigate 3′-SL's effect of improving fatty liver, high-fat diet C56BL/6 male mice were dissected and the liver and other organs were observed.
# [8] = high-fat diet + SL 5 mg/kg peritoneally injected, 50 days
smiles,measurement,setting,value
"CC(=O)N[C@H]1[C@H]([C@H](O)[C@H](O)CO)O[C@@](OC[C@H]2O[C@@H](O[C@H]3[C@H](O)[C@@H](O)[C@H](O)O[C@@H]3CO)[C@H](O)[C@@H](O)[C@H]2O)(C(=O)O)C[C@@H]1O [6′-SL, α-NeuNAc-(2→6)-β-D-Gal-(1→4)-D-Glc]",Weight increase,[1]; HD + SL 0.1 mg/kg,7.82 ± 1.44(*) g/50 day
same,Final weight,"[1]; HD + SL 0.1 mg/kg, 50 days",26.82 ± 0.92 g
same,Weight increase,[1]; HD + SL 0.5 mg/kg,7.68 ± 2.82(*) g/50 day
same,Final weight,"[1]; HD + SL 0.5 mg/kg, 50 days",25.74 ± 1.93 g
same,Weight increase,[1]; HD + SL 1.0 mg/kg,7.99 ± 1.15(*) g/50 day
same,Final weight,"[1]; HD + SL 1.0 mg/kg, 50 days",25.62 ± 1.33 g
same,Weight increase,[1]; HD + SL 5.0 mg/kg,6.88 ± 1.80(*) g/50 day
same,Final weight,"[1]; HD + SL 5.0 mg/kg, 50 days",25.92 ± 0.95 g
same,body weight decrease compared to normal diet mice,[1]; [8],4.7%
same,"Comparison of body weight increase, SL vs. ND",[1]; [8],−4.7%
same,effect on body weight increase (in words),"[1]; high-fat diet mice, peritoneal injection, 50 days",significant decrease in body weight increase; also recorded: more effective in body weight loss than 3′-SL; also recorded: less body weight increase than the normal diet mice
same,Leptin,[2]; HD + SL 0.1 mg/kg,11.50 ± 3.72 ng/mL
same,HDL-cholesterol,[2]; HD + SL 0.1 mg/kg,70.71 ± 14.15 mg/dL
same,HDL/TC,[2]; HD + SL 0.1 mg/kg,0.55 ± 0.08(*)
same,LDL/TC,[2]; HD + SL 0.1 mg/kg,0.33 ± 0.07(*)
same,Total cholesterol (TC),[2]; HD + SL 0.1 mg/kg,126.68 ± 10.7 mg/dL
same,Triglyceride,[2]; HD + SL 0.1 mg/kg,74.48 ± 3.77 mg/dL
same,LDL-cholesterol,[2]; HD + SL 0.1 mg/kg,41.07 ± 6.34 mg/dL
same,Leptin,[2]; HD + SL 0.5 mg/kg,6.71 ± 0.93 ng/mL
same,HDL-cholesterol,[2]; HD + SL 0.5 mg/kg,76.33 ± 10.53 mg/dL
same,HDL/TC,[2]; HD + SL 0.5 mg/kg,0.58 ± 0.05(*)
same,LDL/TC,[2]; HD + SL 0.5 mg/kg,0.31 ± 0.05(*)
same,Total cholesterol (TC),[2]; HD + SL 0.5 mg/kg,130.54 ± 8.10 mg/dL
same,Triglyceride,[2]; HD + SL 0.5 mg/kg,71.05 ± 5.88 mg/dL
same,LDL-cholesterol,[2]; HD + SL 0.5 mg/kg,40.00 ± 4.25 mg/dL
same,Leptin,[2]; HD + SL 1.0 mg/kg,5.15 ± 1.61 ng/mL
same,HDL-cholesterol,[2]; HD + SL 1.0 mg/kg,57.44 ± 0.87 mg/dL
same,HDL/TC,[2]; HD + SL 1.0 mg/kg,0.53 ± 0.03(*)
same,LDL/TC,[2]; HD + SL 1.0 mg/kg,0.36 ± 0.02(*)
same,Total cholesterol (TC),[2]; HD + SL 1.0 mg/kg,109.14 ± 9.86 mg/dL
same,Triglyceride,[2]; HD + SL 1.0 mg/kg,60.69 ± 7.69 mg/dL
same,LDL-cholesterol,[2]; HD + SL 1.0 mg/kg,39.56 ± 8.53 mg/dL
same,Leptin,[2]; HD + SL 5.0 mg/kg,6.47 ± 1.64 ng/mL
same,HDL-cholesterol,[2]; HD + SL 5.0 mg/kg,62.73 ± 8.58 mg/dL
same,HDL/TC,[2]; HD + SL 5.0 mg/kg,0.54 ± 0.05(*)
same,LDL/TC,[2]; HD + SL 5.0 mg/kg,0.35 ± 0.10(*)
same,Total cholesterol (TC),[2]; HD + SL 5.0 mg/kg,115.36 ± 14.9 mg/dL
same,Triglyceride,[2]; HD + SL 5.0 mg/kg,61.34 ± 3.84 mg/dL
same,LDL-cholesterol,[2]; HD + SL 5.0 mg/kg,40.36 ± 2.69 mg/dL
same,"effect on LDL-cholesterol, total cholesterol, triglyceride and leptin levels (in words)","[2]; high-fat diet mice, compared to the high-fat diet group","much better effect of reducing LDL-cholesterol, total cholesterol, triglyceride and leptin levels than 3′-SL"
"CC(=O)N[C@H]1[C@H]([C@H](O)[C@H](O)CO)O[C@@](O[C@H]2[C@@H](O)[C@@H](CO)O[C@@H](O[C@H]3[C@H](O)[C@@H](O)C(O)O[C@@H]3CO)[C@@H]2O)(C(=O)O)C[C@@H]1O (stereo partly drawn) [3′-SL, α-NeuNAc-(2→3)-β-D-Gal-(1→4)-D-Glc]",Final weight,high-fat diet SD rats [3]; HD + SL 1.0 mg/kg,454.17 ± 10.37 g
same,Weight increase,high-fat diet SD rats [3]; HD + SL 1.0 mg/kg,4.05 ± 0.16 g/day
same,Final weight,high-fat diet SD rats [3]; HD + SL 5.0 mg/kg,443.33 ± 19.56 g
same,Weight increase,high-fat diet SD rats [3]; HD + SL 5.0 mg/kg,3.66 ± 0.32 g/day
same,"subcutaneous, perirenal and retroperitoneal fat weight (in words)",high-fat diet SD rats [4],"decreased subcutaneous fat, perirenal fat and retroperitoneal fat in a dose-dependent manner"
same,effect on serum lipid levels (in words),high-fat diet SD rats [5]; compared to the control group,"higher HDL-cholesterol level and lower LDL-cholesterol, total cholesterol and triglyceride levels as compared to the control group"
same,HDL-cholesterol,"high-fat diet SD rats [5]; oral, serum",88.73 ± 1.32
same,HDL/total cholesterol,"high-fat diet SD rats [5]; oral, serum",0.52 ± 0.04
same,LDL/total cholesterol,"high-fat diet SD rats [5]; oral, serum",0.34 ± 0.03
same,Total cholesterol,"high-fat diet SD rats [5]; oral, serum",171.44 ± 12.8
same,Triglyceride,"high-fat diet SD rats [5]; oral, serum",149.00 ± 3.86
same,LDL-cholesterol,"high-fat diet SD rats [5]; oral, serum, calculated by Equation 1",57.91 ± 1.39
same,Weight increase,[1]; HD + SL 0.1 mg/kg,8.94 ± 0.43 g/50 day
same,Final weight,"[1]; HD + SL 0.1 mg/kg, 50 days",31.34 ± 1.15 g
same,Weight increase,[1]; HD + SL 0.5 mg/kg,7.52 ± 0.74 g/50 day
same,Final weight,"[1]; HD + SL 0.5 mg/kg, 50 days",30.42 ± 0.51 g
same,Weight increase,[1]; HD + SL 1.0 mg/kg,5.60 ± 0.77 g/50 day
same,Final weight,"[1]; HD + SL 1.0 mg/kg, 50 days",29.00 ± 0.82 g
same,Weight increase,[1]; HD + SL 5.0 mg/kg,6.68 ± 0.28 g/50 day
same,Final weight,"[1]; HD + SL 5.0 mg/kg, 50 days",28.68 ± 0.95 g
same,"Comparison of body weight increase, SL vs. ND",[1]; [8],51.5%
same,"fatty liver, fat accumulation in liver and other organs (in words)",high-fat diet SD rats [6],fat accumulation reduced markedly
same,Leptin,[2]; HD + SL 0.1 mg/kg,66.59 ± 43.57 ng/mL
same,HDL-cholesterol,[2]; HD + SL 0.1 mg/kg,53.27 ± 5.08 mg/dL
same,HDL/TC,[2]; HD + SL 0.1 mg/kg,0.40 ± 0.04
same,LDL/TC,[2]; HD + SL 0.1 mg/kg,0.43 ± 0.02
same,Total cholesterol (TC),[2]; HD + SL 0.1 mg/kg,135.05 ± 13.58 mg/dL
same,Triglyceride,[2]; HD + SL 0.1 mg/kg,166.78 ± 6.60 mg/dL
same,LDL-cholesterol,[2]; HD + SL 0.1 mg/kg,58.16 ± 3.74 mg/dL
same,Leptin,[2]; HD + SL 0.5 mg/kg,38.73 ± 5.58 ng/mL
same,HDL-cholesterol,[2]; HD + SL 0.5 mg/kg,55.74 ± 3.18 mg/dL
same,HDL/TC,[2]; HD + SL 0.5 mg/kg,0.51 ± 0.02
same,LDL/TC,[2]; HD + SL 0.5 mg/kg,0.45 ± 0.12
same,Total cholesterol (TC),[2]; HD + SL 0.5 mg/kg,108.25 ± 3.06 mg/dL
same,Triglyceride,[2]; HD + SL 0.5 mg/kg,112.99 ± 8.16 mg/dL
same,LDL-cholesterol,[2]; HD + SL 0.5 mg/kg,48.43 ± 13.91 mg/dL
same,Leptin,[2]; HD + SL 1.0 mg/kg,19.29 ± 14.24 ng/mL
same,HDL-cholesterol,[2]; HD + SL 1.0 mg/kg,49.29 ± 3.40 mg/dL
same,HDL/TC,[2]; HD + SL 1.0 mg/kg,0.39 ± 0.01
same,LDL/TC,[2]; HD + SL 1.0 mg/kg,0.37 ± 0.12
same,Total cholesterol (TC),[2]; HD + SL 1.0 mg/kg,126.30 ± 7.75 mg/dL
same,Triglyceride,[2]; HD + SL 1.0 mg/kg,94.28 ± 5.66 mg/dL
same,LDL-cholesterol,[2]; HD + SL 1.0 mg/kg,46.03 ± 13.79 mg/dL
same,Leptin,[2]; HD + SL 5.0 mg/kg,6.64 ± 2.93 ng/mL
same,HDL-cholesterol,[2]; HD + SL 5.0 mg/kg,48.97 ± 1.62 mg/dL
same,HDL/TC,[2]; HD + SL 5.0 mg/kg,0.44 ± 0.05
same,LDL/TC,[2]; HD + SL 5.0 mg/kg,0.27 ± 0.04
same,Total cholesterol (TC),[2]; HD + SL 5.0 mg/kg,112.97 ± 12.54 mg/dL
same,Triglyceride,[2]; HD + SL 5.0 mg/kg,89.78 ± 4.31 mg/dL
same,LDL-cholesterol,[2]; HD + SL 5.0 mg/kg,29.91 ± 2.69 mg/dL
same,"fatty liver, fat accumulation in liver and other organs (in words)",[7],fat accumulation was not observed in the liver or other organs

# Reference: patent US9669050B2, “Composition for prevention or treatment of hyperlipidemia, fatty liver or obesity” (BENEBIOSIS CO., LTD., priority 2008, dated 2017)
